Experimental findings from patent publication US10052331B2, “3-(3H-imidazo[4,5-C]pyridin-2-yl)-1H-pyrazolo[3,4-C]pyridine and therapeutic uses thereof” (Samumed, LLC, priority 2014, dated 2018) are described below.

Molecules are shown by their SMILES.

Assay [1] concerns primary human fibroblasts derived from IPF patients (LL29 cells). Briefly: Inhibition of fibrotic process: αSMA staining in TGF-β1-treated primary human fibroblasts from IPF patients (LL29 cells). The settings on record: Fibroblast, 96 h, LL29 cells treated with TGF-β1 (20 ng/mL), 4 days, 11-point dose-response from 10 μM to 1.87 nM, read-out: Inhibition of fibrosis EC50. The class given is cell-based. The text has this:
The above synthesized compounds were screened using primary human fibroblasts (derived from IPF patients) treated with TGF-β1 to determine their ability to inhibit the fibrotic process.
Primary human fibroblasts derived from IPF patients (LL29 cells) [^1Xiaoqiu Liu, et. al., “Fibrotic Lung Fibroblasts Show Blunted Inhibition by cAMP Due to Deficient cAMP Response Element-Binding Protein Phosphorylation”, Journal of Pharmacology and Experimental Therapeutics (2005), 315(2), 678-687; ^2Watts, K. L., et. al., “RhoA signaling modulates cyclin D1 expression in human lung fibroblasts; implications for idiopathic pulmonary fibrosis”, Respiratory Research (2006), 7(1), 88] were obtained from American Type Culture Collection (ATCC) and expanded in F12 medium supplemented with 15% Fetal Bovine Serum and Penicillin/Streptomycin.
Each compound was dissolved in DMSO as a 10 mM stock and used to prepare compound source plates. Serial dilution (1:2, 11-point dose-response curves from 10 μM to 1.87 nM) and compound transfer was performed using the ECHO 550 (Labcyte, Sunnyvale, Calif.) into 384-well clear bottom assay plates (Greiner Bio-One) with appropriate DMSO backfill for a final DMSO concentration of 0.1%. LL29 cells were plated at 1,500 cells/well in 80 μl/well F12 medium supplemented with 1% Fetal Bovine Serum. One hour after addition of the cells, TGF-β1 (Peprotech; 20 ng/mL) was added to the plates to induce fibrosis (ref. 1 and 2 above). Wells treated with TGF-β1 and containing DMSO were used as controls. Cells were incubated at 37° C. and 5% CO2 for 4 days. Following incubation for 4 days, SYTOX green nucleic acid stain (Life Technologies [Thermo Fisher Scientific]) was added to the wells at a final concentration of 1 uM and incubated at room temperature for 30 min. Cells were then fixed using 4% formaldehyde (Electron Microscopy Sciences), washed 3 times with PBS followed by blocking and permeabilization using 3% Bovine Serum Albumin (BSA; Sigma) and 0.3% Triton X-100 (Sigma) in PBS. Cells were then stained with antibody specific to α-smooth muscle actin (αSMA; Abcam) (ref. 1 and 2 above) in 3% Bovine Serum Albumin (BSA; Sigma) and 0.3% Triton X-100 (Sigma) in PBS, and incubated overnight at 4° C. Cells were then washed 3 times with PBS, followed by incubation with Alexa Flor-647 conjugated secondary antibody (Life Technologies [Thermo Fisher Scientific]) and DAPI at room temperature for 1 hour. Cells were then washed 3 times with PBS and plates were sealed for imaging. αSMA staining was imaged by excitation at 630 nm and emission at 665 nm and quantified using the Compartmental Analysis program on the CellInsight CX5 (Thermo Scientific). Dead or apoptotic cells were excluded from analysis based on positive SYTOX green staining. % of total cells positive for αSMA were counted in each well and normalized to the average of 11 wells treated with TGF-β1 on the same plate using Dotmatics' Studies Software. The normalized averages (fold change over untreated) of 3 replicate wells for each compound concentration were used to create dose-responses curves and EC50 values were calculated using non-linear regression curve fit in the Dotmatics' Studies Software. The EC50 values are reported.

Assay [2] concerns Wnt activity (Wnt-responsive Sp5 promoter-luciferase reporter in SW480 cells). Briefly: Wnt activity screening assay: Sp5-Luc reporter gene in SW480 colon carcinoma cells. The format is cell-based. The conditions noted are these: Homo sapiens. The text has this: The screening assay for Wnt activity is described as follows. Reporter cell lines can be generated by stably transducing cancer cell lines (e.g., colon cancer) or primary cells (e.g., IEC-6 intestinal cells) with a lentiviral construct that includes a Wnt-responsive promoter driving expression of the firefly luciferase gene.
SW480 colon carcinoma cells were transduced with a lentiviral vector expressing luciferase with a human Sp5 promoter consisting of a sequence of eight TCF/LEF binding sites. SW480 cells stably expressing the Sp5-Luc reporter gene and a hygromycin resistance gene were selected by treatment with 150 μg/ml of hygromycin for 7 days. These stably transduced SW480 cells were expanded in cell culture and used for all further screening activities. For Sp5-Luc reporter gene assays, the cells were plated at 10,000 cells/well in 96-well plates with growth medium containing 10% fetal calf serum and incubated overnight at 37° C. and 5% CO2. Each compound was dissolved in DMSO as a 10 mM stock in standard j-vials and used to prepare compound source plates in dose-response format with 3-fold serial dilutions and a 10 mM top concentration. Compound transfer from serially diluted source plates to assay plates containing the cells was accomplished using a pintool (Multimek 96, Beckman equipped with V&P Scientific FP1S50H pins) based liquid handling protocol. This protocol used a slotted pin to transfer 50 nl of compound from a source plate well to an assay plate well containing 50 μl of cells in growth medium. […] Control wells received 50 nl of DMSO treatment for normalization and calculating IC50 values. The treated cells were incubated at 37° C. and 5% CO2 for an additional forty-two hours. Following incubation, the growth medium was removed and 50 μl of BrightGlo luminescence reagent (Promega) was added to each well of the 96-well assay plates. The plates were placed on an orbital shaker for 5 min and then luminescence was quantified on the Victor3 (Perkin Elmer) plate reader. Readings were normalized to DMSO only treated cells, and normalized activities were utilized for IC50 calculations using the dose-response log (inhibitor) vs. response-variable slope (four parameters) nonlinear regression feature available in GraphPad Prism 5.0 or 6.0.
On the technique in general: In a reporter assay the amount or activity of a reporter protein is the signal.

As for `c1cncc(-c2cncc3[nH]c(-c4n[nH]c5cnc(-c6cncc(CN7CCCCC7)c6)cc45)nc23)c1` [Compound 93, 5-(5-(Piperidin-1-ylmethyl)pyridin-3-yl)-3-(7-(pyridin-3-yl)-3H-imidazo[4,5-c]pyridin-2-yl)-1H-pyrazolo[3,4-c]pyridine], the EC50 (in general, the concentration needed to bring the measured effect to its halfway point) in assay [1] is at least 9990 nM. In addition, in assay [2], the IC50 (in general, the point on the concentration scale where inhibition reaches its midpoint) worked out at 2850 nM.
On the same counts, the results for `c1ccc(CNCc2cncc(-c3cc4c(-c5nc6c(-c7cccnc7)cncc6[nH]5)n[nH]c4cn3)c2)cc1` [Compound 101, N-Benzyl-1-(5-(3-(7-(pyridin-3-yl)-3H-imidazo[4,5-c]pyridin-2-yl)-1H-pyrazolo[3,4-c]pyridin-5-yl)pyridin-3-yl)methanamine] are at least 9990 nM and 294 nM.
The corresponding values for `Cc1ccncc1-c1cc2c(-c3nc4c(-c5ccncc5)cncc4[nH]3)n[nH]c2cn1` [Compound 109, 5-(4-Methylpyridin-3-yl)-3-(7-(pyridin-4-yl)-3H-imidazo[4,5-c]pyridin-2-yl)-1H-pyrazolo[3,4-c]pyridine] are at least 9990 nM and above 10000 nM.
The corresponding values for `CCCC(=O)Nc1cncc(-c2cc3c(-c4nc5c(-c6ccncc6)cncc5[nH]4)n[nH]c3cn2)c1` [Compound 121, N-(5-(3-(7-(Pyridin-4-yl)-3H-imidazo[4,5-c]pyridin-2-yl)-1H-pyrazolo[3,4-c]pyridin-5-yl)pyridin-3-yl)butyramide] are at least 9990 nM and above 10000 nM.
For the molecule `CCNCc1cncc(-c2cc3c(-c4nc5c(-c6ccccn6)cncc5[nH]4)n[nH]c3cn2)c1` [Compound 136, N-((5-(3-(7-(Pyridin-2-yl)-3H-imidazo[4,5-c]pyridin-2-yl)-1H-pyrazolo[3,4-c]pyridin-5-yl)pyridin-3-yl)methyl)ethanamine], the concentration for a half-maximal effect (EC50) in assay [1] was 598 nM. Further, the IC50 in assay [2] amounted to 562 nM.
Take `O=C(Nc1cncc(-c2cc3c(-c4nc5c(-c6ccccn6)cncc5[nH]4)n[nH]c3cn2)c1)c1ccccc1` [Compound 141, N-(5-(3-(7-(Pyridin-2-yl)-3H-imidazo[4,5-c]pyridin-2-yl)-1H-pyrazolo[3,4-c]pyridin-5-yl)pyridin-3-yl)benzamide]: the EC50 in assay [1] is at least 9990 nM. In addition, the concentration for half-maximal inhibition (IC50) in assay [2] is above 10000 nM.
On the same counts, the results for `CCCCC(=O)Nc1cncc(-c2cc3c(-c4nc5c(-c6ccccn6)cncc5[nH]4)n[nH]c3cn2)c1` [Compound 148, N-(5-(3-(7-(Pyridin-2-yl)-3H-imidazo[4,5-c]pyridin-2-yl)-1H-pyrazolo[3,4-c]pyridin-5-yl)pyridin-3-yl)pentanamide] are at least 9990 nM and above 10000 nM.
As for `c1ccc(-c2cncc3[nH]c(-c4n[nH]c5cnc(-c6cncc(CNCC7CCCC7)c6)cc45)nc23)nc1` [Compound 154, 1-Cyclopentyl-N-((5-(3-(7-(pyridin-2-yl)-3H-imidazo[4,5-c]pyridin-2-yl)-1H-pyrazolo[3,4-c]pyridin-5-yl)pyridin-3-yl)methyl)methanamine], in assay [1], the concentration for a half-maximal effect (EC50) worked out at 649 nM. The molecule also showed an IC50 in assay [2] of 945 nM.
On the same counts, the results for `CCC(=O)Nc1cncc(-c2cc3c(-c4nc5c(N6CCCCC6)cncc5[nH]4)n[nH]c3cn2)c1` [Compound 157, N-(5-(3-(7-(Piperidin-1-yl)-3H-imidazo[4,5-c]pyridin-2-yl)-1H-pyrazolo[3,4-c]pyridin-5-yl)pyridin-3-yl)propionamide] are 1560 nM and 866 nM.
For `CN(C)c1cncc(-c2cc3c(-c4nc5c(N6CCCCC6)cncc5[nH]4)n[nH]c3cn2)c1` [Compound 163, N,N-Dimethyl-5-(3-(7-(piperidin-1-yl)-3H-imidazo[4,5-c]pyridin-2-yl)-1H-pyrazolo[3,4-c]pyridin-5-yl)pyridin-3-amine], the EC50 in assay [1] was determined as 38 nM. The IC50 in assay [2] was found to be 310 nM.
The corresponding values for `CN(C)Cc1cncc(-c2cc3c(-c4nc5c(N6CCCCC6)cncc5[nH]4)n[nH]c3cn2)c1` [Compound 169, N,N-Dimethyl-1-(5-(3-(7-(piperidin-1-yl)-3H-imidazo[4,5-c]pyridin-2-yl)-1H-pyrazolo[3,4-c]pyridin-5-yl)pyridin-3-yl)methanamine] are 74 nM and 122 nM.
`O=C(Nc1cncc(-c2cc3c(-c4nc5c(N6CCCCC6)cncc5[nH]4)n[nH]c3cn2)c1)C1CC1` [Compound 175, N-(5-(3-(7-(Piperidin-1-yl)-3H-imidazo[4,5-c]pyridin-2-yl)-1H-pyrazolo[3,4-c]pyridin-5-yl)pyridin-3-yl)cyclopropanecarboxamide]: the 50% effective concentration (EC50) in assay [1] was at most 9 nM. The molecule also registered an IC50 in assay [2] of 820 nM.
As for `CN1CCN(c2cncc3[nH]c(-c4n[nH]c5cnc(-c6cncc(N)c6)cc45)nc23)CC1` [Compound 211, 5-(3-(7-(4-Methylpiperazin-1-yl)-3H-imidazo[4,5-c]pyridin-2-yl)-1H-pyrazolo[3,4-c]pyridin-5-yl)pyridin-3-amine], the half-maximal effective concentration (EC50) in assay [1] is at most 9 nM. The same molecule showed an IC50 in assay [2] above 10000 nM.
For the molecule `CC(C)C(=O)Nc1cncc(-c2cc3c(-c4nc5c(N6CCN(C)CC6)cncc5[nH]4)n[nH]c3cn2)c1` [Compound 217, N-(5-(3-(7-(4-Methylpiperazin-1-yl)-3H-imidazo[4,5-c]pyridin-2-yl)-1H-pyrazolo[3,4-c]pyridin-5-yl)pyridin-3-yl)isobutyramide], the EC50 in assay [1] is at least 9990 nM. Further, 557 nM corresponded to half-maximal inhibition in assay [2] (IC50).
With `CN1CCN(c2cncc3[nH]c(-c4n[nH]c5cnc(-c6cncc(CN7CCCCC7)c6)cc45)nc23)CC1` [Compound 223, 3-(7-(4-Methylpiperazin-1-yl)-3H-imidazo[4,5-c]pyridin-2-yl)-5-(5-(piperidin-1-ylmethyl)pyridin-3-yl)-1H-pyrazolo[3,4-c]pyridine], in assay [1], the EC50 is at least 9990 nM. In assay [2], the midpoint of inhibition, the IC50, lay at 1380 nM.
Regarding `CN1CCN(c2cncc3[nH]c(-c4n[nH]c5cnc(-c6cncc(NC(=O)C7CCCC7)c6)cc45)nc23)CC1` [Compound 229, N-(5-(3-(7-(4-Methylpiperazin-1-yl)-3H-imidazo[4,5-c]pyridin-2-yl)-1H-pyrazolo[3,4-c]pyridin-5-yl)pyridin-3-yl)cyclopentanecarboxamide], in assay [1], the half-maximal effective concentration (EC50) is at least 9990 nM. Also, in assay [2], the IC50 turned out to be 440 nM.
With `CN1CCN(c2cncc3[nH]c(-c4n[nH]c5cnc(-c6cncnc6)cc45)nc23)CC1` [Compound 234, 3-(7-(4-methylpiperazin-1-yl)-3H-imidazo[4,5-c]pyridin-2-yl)-5-(pyrimidin-5-yl)-1H-pyrazolo[3,4-c]pyridine], in assay [1], the EC50 came to 966 nM. The IC50 in assay [2] stood at 379 nM.
